Test results reported in publication PMC9954146, “Anti-Leukaemic Activity of Rilpivirine Is Mediated by Aurora A Kinase Inhibition” (Cancers, 2023).

How the values were obtained:
Test in all cases: Kinase panel
Format in all cases: biochemical
Conditions in all cases: read-out: % Residual Activity
Abl(m) = biological target: T1, Abl(m) (Mus musculus, UniProt P00520)
T1 construct: purchased Eurofins (KinaseProfiler)
In short: (§1)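 Radiometric kinase assay, ATP at Km for each enzyme; IC50 → Ki via Cheng–Prusoff. Part of a kinome-wide selectivity screen of rilpivirine.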

CDKL4(h) = biological target: T2, CDKL4(h) (Homo sapiens, UniProt Q5MAI5)
T2 construct: purchased Eurofins (KinaseProfiler)
In short: as §1

CaMKI(h) = biological target: T3, CaMKI(h) (Homo sapiens, UniProt Q14012)
T3 construct: purchased Eurofins (KinaseProfiler)
T3 sequence (Q14012 whole entry): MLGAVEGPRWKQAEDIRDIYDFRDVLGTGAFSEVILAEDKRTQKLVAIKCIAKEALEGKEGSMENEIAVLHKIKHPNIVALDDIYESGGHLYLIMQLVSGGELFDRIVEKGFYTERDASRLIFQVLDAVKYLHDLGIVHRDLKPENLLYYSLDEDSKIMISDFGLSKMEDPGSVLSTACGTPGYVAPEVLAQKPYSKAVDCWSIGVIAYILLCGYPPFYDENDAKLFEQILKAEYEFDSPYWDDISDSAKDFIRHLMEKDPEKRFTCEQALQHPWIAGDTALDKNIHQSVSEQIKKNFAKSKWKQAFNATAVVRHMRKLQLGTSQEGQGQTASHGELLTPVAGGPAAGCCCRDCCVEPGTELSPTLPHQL
In short: as §1

CaMKIIγ(h) = biological target: T4, CaMKIIγ(h) (Homo sapiens, UniProt Q13555)
T4 construct: purchased Eurofins (KinaseProfiler)
In short: as §1

DCAMKL2(h) = biological target: T5, DCAMKL2(h) (Homo sapiens, UniProt Q8N568)
T5 construct: purchased Eurofins (KinaseProfiler)
In short: as §1

DYRK3(h) = biological target: T6, DYRK3(h) (Homo sapiens, UniProt O43781)
T6 construct: purchased Eurofins (KinaseProfiler)
In short: as §1

EGFR(T790M,L858R)(h) = biological target: T7, EGFR(T790M,L858R)(h) (Homo sapiens, UniProt P00533, L858R/T790M)
T7 construct: purchased Eurofins (KinaseProfiler)
In short: as §1

FGFR2(N549H)(h) = biological target: T8, FGFR2(N549H)(h) (Homo sapiens, UniProt P21802, N549H)
T8 construct: purchased Eurofins (KinaseProfiler)
In short: as §1

Fyn(h) = biological target: T9, Fyn(h) (Homo sapiens, UniProt P06241)
T9 construct: purchased Eurofins (KinaseProfiler)
T9 sequence (P06241 whole entry): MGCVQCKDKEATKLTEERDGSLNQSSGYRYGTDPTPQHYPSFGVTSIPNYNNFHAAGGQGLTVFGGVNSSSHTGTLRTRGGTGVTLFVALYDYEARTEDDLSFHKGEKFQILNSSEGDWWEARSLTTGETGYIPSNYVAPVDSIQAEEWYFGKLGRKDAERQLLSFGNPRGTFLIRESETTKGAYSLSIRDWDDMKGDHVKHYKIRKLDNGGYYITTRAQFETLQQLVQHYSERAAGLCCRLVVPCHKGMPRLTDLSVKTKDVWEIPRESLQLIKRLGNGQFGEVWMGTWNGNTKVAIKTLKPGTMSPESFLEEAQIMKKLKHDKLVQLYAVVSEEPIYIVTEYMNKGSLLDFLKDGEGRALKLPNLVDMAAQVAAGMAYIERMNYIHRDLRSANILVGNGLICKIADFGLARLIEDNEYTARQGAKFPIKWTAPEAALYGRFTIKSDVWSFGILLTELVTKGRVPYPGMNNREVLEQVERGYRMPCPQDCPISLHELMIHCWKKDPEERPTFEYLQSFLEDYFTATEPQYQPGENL
In short: as §1

GRK3(h) = biological target: T10, GRK3(h) (Homo sapiens, UniProt P35626)
T10 construct: purchased Eurofins (KinaseProfiler)
In short: as §1

HIPK3(h) = biological target: T11, HIPK3(h) (Homo sapiens, UniProt Q9H422)
T11 construct: purchased Eurofins (KinaseProfiler)
In short: as §1

Hck(h) activated = biological target: T12, Hck(h) activated (Homo sapiens, UniProt P08631)
T12 construct: purchased Eurofins (KinaseProfiler)
In short: as §1

IKKε(h) = biological target: T13, IKKε(h) (Homo sapiens, UniProt Q14164)
T13 construct: purchased Eurofins (KinaseProfiler)
T13 sequence (Q14164 whole entry): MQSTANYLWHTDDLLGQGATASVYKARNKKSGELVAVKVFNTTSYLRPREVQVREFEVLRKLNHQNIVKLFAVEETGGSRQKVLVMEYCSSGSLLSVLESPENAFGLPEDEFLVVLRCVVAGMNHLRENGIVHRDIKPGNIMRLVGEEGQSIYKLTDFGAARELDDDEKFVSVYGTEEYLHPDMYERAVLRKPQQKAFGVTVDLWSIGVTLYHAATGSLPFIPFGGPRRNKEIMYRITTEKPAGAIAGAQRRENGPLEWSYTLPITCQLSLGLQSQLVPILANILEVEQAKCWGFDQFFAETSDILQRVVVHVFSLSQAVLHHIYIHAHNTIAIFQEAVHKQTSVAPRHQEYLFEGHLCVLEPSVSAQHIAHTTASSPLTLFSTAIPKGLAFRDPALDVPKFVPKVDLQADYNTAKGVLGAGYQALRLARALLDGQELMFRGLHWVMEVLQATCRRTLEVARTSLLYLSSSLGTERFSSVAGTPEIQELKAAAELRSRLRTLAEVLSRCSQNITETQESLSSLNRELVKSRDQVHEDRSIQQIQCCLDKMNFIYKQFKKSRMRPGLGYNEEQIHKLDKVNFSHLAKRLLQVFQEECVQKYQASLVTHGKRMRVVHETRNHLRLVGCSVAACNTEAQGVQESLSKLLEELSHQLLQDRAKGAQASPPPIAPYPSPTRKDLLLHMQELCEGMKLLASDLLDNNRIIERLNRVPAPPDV
In short: as §1

JNK1α1(h) = biological target: T14, JNK1α1(h) (Homo sapiens, UniProt P45983)
T14 construct: purchased Eurofins (KinaseProfiler)
T14 sequence (P45983 1-384 isoform P45983-2): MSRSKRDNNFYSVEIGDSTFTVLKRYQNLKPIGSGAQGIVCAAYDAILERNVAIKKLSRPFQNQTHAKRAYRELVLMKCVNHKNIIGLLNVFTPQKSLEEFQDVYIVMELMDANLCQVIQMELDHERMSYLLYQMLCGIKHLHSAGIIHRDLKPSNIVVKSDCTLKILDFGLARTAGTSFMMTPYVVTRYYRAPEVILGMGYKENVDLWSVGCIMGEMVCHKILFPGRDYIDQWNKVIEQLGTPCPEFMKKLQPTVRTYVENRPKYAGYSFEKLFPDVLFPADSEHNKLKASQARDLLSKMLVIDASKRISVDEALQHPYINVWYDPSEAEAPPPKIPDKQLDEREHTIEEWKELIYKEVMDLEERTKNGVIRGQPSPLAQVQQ
In short: as §1

LRRK2(h) = biological target: T15, LRRK2(h) (Homo sapiens, UniProt Q5S007)
T15 construct: purchased Eurofins (KinaseProfiler)
In short: as §1

Lyn(m) = biological target: T16, Lyn(m) (Mus musculus, UniProt P25911)
T16 construct: purchased Eurofins (KinaseProfiler)
T16 sequence (P25911 2-512 limits assumed): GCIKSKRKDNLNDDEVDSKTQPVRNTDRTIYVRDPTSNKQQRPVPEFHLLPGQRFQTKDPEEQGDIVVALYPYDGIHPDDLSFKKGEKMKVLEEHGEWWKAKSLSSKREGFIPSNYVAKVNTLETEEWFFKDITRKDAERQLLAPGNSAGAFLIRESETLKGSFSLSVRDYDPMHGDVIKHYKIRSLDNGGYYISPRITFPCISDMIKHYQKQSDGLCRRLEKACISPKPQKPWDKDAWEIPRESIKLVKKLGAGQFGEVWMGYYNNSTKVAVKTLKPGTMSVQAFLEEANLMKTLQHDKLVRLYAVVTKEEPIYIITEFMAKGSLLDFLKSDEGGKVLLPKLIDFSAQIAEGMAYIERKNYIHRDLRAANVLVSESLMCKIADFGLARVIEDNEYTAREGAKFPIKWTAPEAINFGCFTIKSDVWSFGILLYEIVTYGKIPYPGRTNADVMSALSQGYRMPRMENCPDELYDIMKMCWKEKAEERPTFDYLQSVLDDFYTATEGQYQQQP
In short: as §1

MLK4(h) = biological target: T17, MLK4(h) (Homo sapiens, UniProt Q5TCX8)
T17 construct: purchased Eurofins (KinaseProfiler)
In short: as §1

MST1(h) = biological target: T18, MST1(h) (Homo sapiens, UniProt Q13043)
T18 construct: purchased Eurofins (KinaseProfiler)
In short: as §1

MST4(h) = biological target: T19, MST4(h) (Homo sapiens, UniProt Q9P289)
T19 construct: purchased Eurofins (KinaseProfiler)
T19 sequence (Q9P289 whole entry): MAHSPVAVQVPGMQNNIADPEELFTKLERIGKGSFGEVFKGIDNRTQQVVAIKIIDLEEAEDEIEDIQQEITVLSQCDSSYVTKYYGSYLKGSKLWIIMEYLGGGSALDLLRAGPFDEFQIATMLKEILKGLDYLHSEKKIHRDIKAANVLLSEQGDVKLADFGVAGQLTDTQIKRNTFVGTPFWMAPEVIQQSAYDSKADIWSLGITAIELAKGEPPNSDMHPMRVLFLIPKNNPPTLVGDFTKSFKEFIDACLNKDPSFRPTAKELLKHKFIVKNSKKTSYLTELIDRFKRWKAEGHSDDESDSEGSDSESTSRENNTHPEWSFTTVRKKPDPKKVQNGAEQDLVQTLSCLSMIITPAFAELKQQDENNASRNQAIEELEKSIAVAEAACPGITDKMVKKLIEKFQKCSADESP
In short: as §1

Met(M1268T)(h) = biological target: T20, Met(M1268T)(h) (Homo sapiens, UniProt P08581, M1250T)
T20 construct: purchased Eurofins (KinaseProfiler)
In short: as §1

NDR1(h) = biological target: T21, NDR1(h) (Homo sapiens, UniProt Q15208)
T21 construct: purchased Eurofins (KinaseProfiler)
In short: as §1

PAK3(h) = biological target: T22, PAK3(h) (Homo sapiens, UniProt O75914)
T22 construct: purchased Eurofins (KinaseProfiler)
T22 sequence (O75914 whole entry): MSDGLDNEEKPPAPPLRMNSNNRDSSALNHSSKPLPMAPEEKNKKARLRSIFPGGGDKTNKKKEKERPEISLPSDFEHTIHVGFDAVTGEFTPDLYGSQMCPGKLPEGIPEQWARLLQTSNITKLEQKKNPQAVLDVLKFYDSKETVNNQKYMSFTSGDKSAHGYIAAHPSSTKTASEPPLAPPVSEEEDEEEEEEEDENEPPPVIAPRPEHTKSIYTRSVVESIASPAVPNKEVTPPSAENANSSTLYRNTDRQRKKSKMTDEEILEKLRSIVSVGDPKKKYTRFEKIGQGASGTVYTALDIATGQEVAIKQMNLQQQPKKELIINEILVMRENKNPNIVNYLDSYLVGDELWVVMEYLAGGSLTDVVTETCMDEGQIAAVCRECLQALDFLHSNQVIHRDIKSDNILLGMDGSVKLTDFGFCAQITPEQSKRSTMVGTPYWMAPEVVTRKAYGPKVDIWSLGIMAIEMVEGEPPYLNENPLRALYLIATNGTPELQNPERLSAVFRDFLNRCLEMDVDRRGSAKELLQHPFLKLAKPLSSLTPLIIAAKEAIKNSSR
In short: as §1

[1] = biological target: T23, PI3 Kinase (p110a/p65a)(m) (Mus musculus, UniProt P42337)
T23 construct: purchased Eurofins (KinaseProfiler)
In short: as §1

PI3KC2a(h) = PI3KC2a(h) (Homo sapiens, UniProt O00443)
In short: as §1

PKD3(h) = biological target: T24, PKD3(h) (Homo sapiens, UniProt O94806)
T24 construct: purchased Eurofins (KinaseProfiler)
In short: as §1

Plk1(h) = biological target: T25, Plk1(h) (Homo sapiens, UniProt P53350)
T25 construct: purchased Eurofins (KinaseProfiler)
In short: as §1

Plk4(h) = biological target: T26, Plk4(h) (Homo sapiens, UniProt O00444)
T26 construct: purchased Eurofins (KinaseProfiler)
In short: as §1

Rsk4(h) = biological target: T27, Rsk4(h) (Homo sapiens, UniProt Q9UK32)
T27 construct: purchased Eurofins (KinaseProfiler)
In short: as §1

SRMS(h) = biological target: T28, SRMS(h) (Homo sapiens, UniProt Q9H3Y6)
T28 construct: purchased Eurofins (KinaseProfiler)
T28 sequence (Q9H3Y6 whole entry): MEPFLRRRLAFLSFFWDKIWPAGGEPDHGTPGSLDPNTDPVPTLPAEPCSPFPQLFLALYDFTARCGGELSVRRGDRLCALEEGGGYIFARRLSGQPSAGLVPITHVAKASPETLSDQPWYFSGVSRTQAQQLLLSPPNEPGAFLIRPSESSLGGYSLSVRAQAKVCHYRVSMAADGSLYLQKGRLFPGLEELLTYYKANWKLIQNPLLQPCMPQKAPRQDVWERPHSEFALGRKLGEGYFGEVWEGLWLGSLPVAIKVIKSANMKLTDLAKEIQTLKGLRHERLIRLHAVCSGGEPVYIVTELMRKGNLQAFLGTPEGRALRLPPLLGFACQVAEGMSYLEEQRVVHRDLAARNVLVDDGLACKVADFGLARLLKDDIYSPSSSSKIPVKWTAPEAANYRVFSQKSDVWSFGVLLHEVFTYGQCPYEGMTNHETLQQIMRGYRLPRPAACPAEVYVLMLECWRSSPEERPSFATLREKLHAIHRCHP
In short: as §1

SRPK2(h) = biological target: T29, SRPK2(h) (Homo sapiens, UniProt P78362)
T29 construct: purchased Eurofins (KinaseProfiler)
T29 sequence (P78362 whole entry): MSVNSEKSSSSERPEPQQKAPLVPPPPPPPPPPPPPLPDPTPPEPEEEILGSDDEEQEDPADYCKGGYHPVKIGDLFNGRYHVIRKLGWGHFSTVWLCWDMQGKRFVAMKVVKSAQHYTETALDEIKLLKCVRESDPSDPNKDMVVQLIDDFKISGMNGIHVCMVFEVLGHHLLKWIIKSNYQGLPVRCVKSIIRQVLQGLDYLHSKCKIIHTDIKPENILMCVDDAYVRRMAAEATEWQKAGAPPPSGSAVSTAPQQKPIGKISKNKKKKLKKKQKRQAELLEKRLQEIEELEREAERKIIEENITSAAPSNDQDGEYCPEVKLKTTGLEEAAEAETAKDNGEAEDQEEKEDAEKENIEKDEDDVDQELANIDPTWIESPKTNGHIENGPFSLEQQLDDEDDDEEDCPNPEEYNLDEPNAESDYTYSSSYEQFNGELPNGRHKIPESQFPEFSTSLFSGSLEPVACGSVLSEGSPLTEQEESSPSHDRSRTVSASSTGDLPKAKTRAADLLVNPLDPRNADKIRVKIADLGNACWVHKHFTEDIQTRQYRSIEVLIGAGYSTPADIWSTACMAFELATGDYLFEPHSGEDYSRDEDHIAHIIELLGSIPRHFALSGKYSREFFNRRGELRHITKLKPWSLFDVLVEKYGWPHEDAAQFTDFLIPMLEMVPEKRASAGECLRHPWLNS
In short: as §1

TAO3(h) = biological target: T30, TAO3(h) (Homo sapiens, UniProt Q9H2K8)
T30 construct: purchased Eurofins (KinaseProfiler)
In short: as §1

TSSK3(h) = biological target: T31, TSSK3(h) (Homo sapiens, UniProt Q96PN8)
T31 construct: purchased Eurofins (KinaseProfiler)
T31 sequence (Q96PN8 whole entry): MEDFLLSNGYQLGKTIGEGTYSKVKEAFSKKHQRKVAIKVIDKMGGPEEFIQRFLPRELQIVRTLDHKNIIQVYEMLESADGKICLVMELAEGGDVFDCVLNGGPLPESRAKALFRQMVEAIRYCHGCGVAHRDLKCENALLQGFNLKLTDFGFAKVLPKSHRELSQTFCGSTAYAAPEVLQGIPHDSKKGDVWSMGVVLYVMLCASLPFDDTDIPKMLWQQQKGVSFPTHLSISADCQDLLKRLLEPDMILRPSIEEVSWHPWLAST
In short: as §1

TTBK1(h) = biological target: T32, TTBK1(h) (Homo sapiens, UniProt Q5TCY1)
T32 construct: purchased Eurofins (KinaseProfiler)
In short: as §1

TrkB(h) = biological target: T33, TrkB(h) (Homo sapiens, UniProt Q16620)
T33 construct: purchased Eurofins (KinaseProfiler)
In short: as §1

VRK2(h) = biological target: T34, VRK2(h) (Homo sapiens, UniProt Q86Y07)
T34 construct: purchased Eurofins (KinaseProfiler)
In short: as §1

WNK4(h) = biological target: T35, WNK4(h) (Homo sapiens, UniProt Q96J92)
T35 construct: purchased Eurofins (KinaseProfiler)
In short: as §1

Wee1B(h) = biological target: T36, Wee1B(h) (Homo sapiens, UniProt P0C1S8)
T36 construct: purchased Eurofins (KinaseProfiler)
In short: as §1

cKit(h) = biological target: T37, cKit(h) (Homo sapiens, UniProt P10721)
T37 construct: purchased Eurofins (KinaseProfiler)
In short: as §1

With Cc1cc(/C=C/C#N)cc(C)c1Nc1ccnc(Nc2ccc(C#N)cc2)n1 [rilpivirine, (E)-4-((4-((4-(2-cyanoethenyl)-2,6-dimethylphenyl)amino)pyrimidin-2-yl)amino)benzonitrile] the remaining activity at 1 µM (Abl(m)) was 63%, the remaining activity at 1 µM (CDKL4(h)) was 74% and the remaining activity at 1 µM (CaMKI(h)) was 92%. For the same compound, the remaining activity at 1 µM (CaMKIIγ(h)) was 58%, the remaining activity at 1 µM (DCAMKL2(h)) was 122% and the remaining activity at 1 µM (DYRK3(h)) was 84%. The remaining activity at 1 µM (EGFR(T790M,L858R)(h)) was 88%, the remaining activity at 1 µM (FGFR2(N549H)(h)) was 91% and the remaining activity at 1 µM (Fyn(h)) was 49%. For the same compound, the remaining activity at 1 µM (GRK3(h)) was 92%, the remaining activity at 1 µM (HIPK3(h)) was 92% and the remaining activity at 1 µM (Hck(h) activated) was 63%. For the same compound, the remaining activity at 1 µM (IKKε(h)) was 82%, the remaining activity at 1 µM (JNK1α1(h)) was 90% and the remaining activity at 1 µM (LRRK2(h)) was 93%. It also gave a remaining activity at 1 µM (Lyn(m)) of 25%, a remaining activity at 1 µM (MLK4(h)) of 95% and a remaining activity at 1 µM (MST1(h)) of 84%. For the same compound, the remaining activity at 1 µM (MST4(h)) was 91%, the remaining activity at 1 µM (Met(M1268T)(h)) was 109% and the remaining activity at 1 µM (NDR1(h)) was 89%. The remaining activity at 1 µM (PAK3(h)) was 86%, the remaining activity at 1 µM [1] was 104% and the remaining activity at 1 µM (PI3KC2a(h)) was 94%. The remaining activity at 1 µM (PKD3(h)) was 76%, the remaining activity at 1 µM (Plk1(h)) was 107% and the remaining activity at 1 µM (Plk4(h)) was 85%. The remaining activity at 1 µM (Rsk4(h)) was 99%, the remaining activity at 1 µM (SRMS(h)) was 55% and the remaining activity at 1 µM (SRPK2(h)) was 91%. It also gave a remaining activity at 1 µM (TAO3(h)) of 65%, a remaining activity at 1 µM (TSSK3(h)) of 95% and a remaining activity at 1 µM (TTBK1(h)) of 90%. For the same compound, the remaining activity at 1 µM (TrkB(h)) was 72%, the remaining activity at 1 µM (VRK2(h)) was 88% and the remaining activity at 1 µM (WNK4(h)) was 113%. It also gave a remaining activity at 1 µM (Wee1B(h)) of 94% and a remaining activity at 1 µM (cKit(h)) of 99%.
